Source: ChEMBL document CHEMBL4373654, “Discovery of (aza)indole derivatives as novel respiratory syncytial virus fusion inhibitors” (Medchemcomm, 2019)
pEC50: −log10 of the molar value. ≈ marks a conversion by molar mass, not a printed value. Calls of active or inactive are those of the source. The rule behind the calls is not given here.

Legend:
[1] = Cytotoxicity against human Hep2 cells assessed as reduction in cell viability after 6 days by MTT assay; assay type: cell-based; conditions: HEp-2 cells
[2] = Therapeutic index, ratio of CC50 for cytotoxicity against human Hep2 cells to EC50 for antiviral activity against Respiratory syncytial virus Long infected in HEp-2 cells; assay type: toxicity, cell-based; conditions: read-out: Ratio CC50/EC50
[3] = test system: Respiratory syncytial virus; assay: Antiviral activity against Respiratory syncytial virus Long infected in HEp-2 cells assessed as reduction in virus induced cytopathic effect measured after 6 days by MTT assay; assay type: functional, organism-based; conditions: human respiratory syncytial virus, HEp-2, 144 h
[4] = test system: Respiratory syncytial virus; assay: Inhibition of Respiratory syncytial virus Long F protein expressed in Flp-In T-REx 293 cells assessed as reduction in syncytia formation at 10 nM after 3 days by microscopic analysis relative to control; assay type: cell-based
[5] = Oral bioavailability in ICR mouse at 25 mg/kg administered as single dose; assay type: ADME, organism-based; conditions: in vivo
[6] = test system: Respiratory syncytial virus; assay: Inhibition of Respiratory syncytial virus Long F protein expressed in Flp-In T-REx 293 cells assessed as cell-cell fusion at 1 nM after 3 days by microscopic analysis; assay type: cell-based
[7] = AUC in ICR mouse at 25 mg/kg, po administered as single dose; assay type: ADME, organism-based; conditions: in vivo
[8] = Clearance in ICR mouse at 5 mg/kg, iv or 25 mg/kg, po administered as single dose; assay type: ADME, organism-based; conditions: in vivo
[9] = test system: Respiratory syncytial virus; assay: Inhibition of Respiratory syncytial virus Long F protein expressed in Flp-In T-REx 293 cells assessed as syncytia formation at 1 nM after 3 days by microscopic analysis; assay type: cell-based
[10] = Volume of distribution at steady state in ICR mouse at 5 mg/kg, iv administered as single dose; assay type: ADME, organism-based; conditions: in vivo, read-out: Vdss
[11] = Solubility of compound by LYSA assay; assay type: physicochemical
[12] = Half life in ICR mouse at 25 mg/kg, po administered as single dose; assay type: ADME, organism-based; conditions: in vivo
[13] = Volume of distribution at steady state in ICR mouse at 2 mg/kg, iv administered as single dose; assay type: ADME, organism-based; conditions: in vivo, read-out: Vdss
[14] = Oral bioavailability in ICR mouse at 10 mg/kg administered as single dose; assay type: ADME, organism-based; conditions: in vivo
[15] = AUC in ICR mouse at 10 mg/kg, po administered as single dose; assay type: ADME, organism-based; conditions: in vivo
[16] = Clearance in ICR mouse at 2 mg/kg, iv or 10 mg/kg, po administered as single dose; assay type: ADME, organism-based; conditions: in vivo
[17] = Half life in ICR mouse at 10 mg/kg, po administered as single dose; assay type: ADME, organism-based; conditions: in vivo

Structure (SMILES)	CC50 at 144 h [1] [nM]	selectivity ratio [2]	pEC50 [3]	other results
CCS(=O)(=O)CCn1c(CN2C(=O)C3(CC3)c3ccncc32)cc2cc(Cl)ccc21	> 100000	> 12500	8.10	–
O=C1N(Cc2cc3cc(Cl)ccc3n2[C@@H]2CCS(=O)(=O)C2)c2cnccc2C12CC2	37100	18600	8.70	inhibition [4]: 100%; bioavailability [5]: 24.5%; inhibition [6]: inactive; AUC [7]: 3360 µg/L/h; clearance [8]: 30.2 mL/min/kg; inhibition [9]: inactive; Vd [10]: 2.35 L/kg; solubility [11]: 2 µg/mL (≈ 4.53 µM); half-life [12]: 3.04 h
CS(=O)(=O)CCn1c(CN2C(=O)C3(CC3)c3ccncc32)cc2ccc(Cl)cc21	59700	12	5.32	–
CS(=O)(=O)CCn1c(CN2C(=O)C3(CC3)c3ccncc32)cc2cc(Cl)ccc21	67400	3740	7.74	AUC [7]: 1550 µg/L/h; clearance [8]: 54.2 mL/min/kg; Vd [10]: 1.38 L/kg; solubility [11]: 17 µg/mL (≈ 39.5 µM); half-life [12]: 0.64 h
CS(=O)(=O)CCn1c(CN2C(=O)C3(CC3)c3ccncc32)cc2ccccc21	77500	352	6.66	–
CS(=N)(=O)CCn1c(CN2C(=O)C3(CC3)c3ccncc32)cc2cc(Cl)ccc21 (configuration not stated)	78300	11200	8.15	–
CS(=O)(=O)CCn1c(CN2C(=O)C3(CC3)c3ccncc32)cc2nc(Cl)ccc21	74500	1180	7.20	–
CS(=O)(=O)CCn1c(CN2C(=O)C3(CC3)c3ccncc32)cc2cc(Cl)ncc21	98900	300	6.48	–
CS(=O)(=O)CCn1c(CN2C(=O)C3(CC3)c3ccncc32)cc2c(C(F)(F)F)cccc21	> 100000	> 179	6.25	–
CS(=O)(=O)CCCn1c(CN2C(=O)C3(CC3)c3ccncc32)cc2cc(Cl)ccc21	38600	12900	8.52	–
Cc1cccc2c1cc(CN1C(=O)C3(CC3)c3ccncc31)n2CCS(C)(=O)=O	61600	6840	8.05	–
CS(=O)(=O)CCn1c(CN2C(=O)C3(CC3)c3cccnc32)cc2cc(Cl)ccc21	> 100000	> 588	6.77	–
CS(=O)(=O)CCn1c(CN2C(=O)C3(CC3)c3ccncc32)cc2cc(Cl)cnc21	41700	1600	7.59	AUC [7]: 10200 µg/L/h; clearance [8]: 23.7 mL/min/kg; Vd [10]: 0.845 L/kg; solubility [11]: 5 µg/mL (≈ 11.6 µM); half-life [12]: 0.7 h
CS(=O)(=O)CCn1c(CN2C(=O)C3(CC3)c3ccncc32)cc2c(C#N)cccc21	> 100000	> 106	6.03	–
CS(=N)(=O)CCCn1c(CN2C(=O)C3(CC3)c3ccncc32)cc2cc(Cl)ccc21 (configuration not stated)	68300	11400	8.22	–
CS(=O)(=O)CCn1c(CN2C(=O)C3(CC3)c3ccncc32)cc2c(Cl)cccc21	> 100000	> 60	5.78	–
CCc1cccc2c1cc(CN1C(=O)C3(CC3)c3ccncc31)n2CCS(C)(=O)=O	86800	395	6.66	–
CS(=O)(=O)CCn1c(CN2C(=O)C3(CC3)c3ccncc32)cc2c(Br)cccc21	49900	3560	7.85	–
CCS(=O)(=O)CCCn1c(CN2C(=O)C3(CC3)c3ccncc32)cc2cc(Cl)ccc21	51200	17100	8.52	–
COc1cccc2c1cc(CN1C(=O)C3(CC3)c3ccncc31)n2CCS(C)(=O)=O	> 100000	> 1350	7.13	–
CS(=O)(=O)CCn1c(CN2C(=O)C3(CC3)c3cnccc32)cc2cc(Cl)ccc21	96800	484	6.70	–
C[S+]([O-])CCCn1c(CN2C(=O)C3(CC3)c3ccncc32)cc2cc(Cl)ccc21 (configuration not stated)	92100	10200	8.05	–
O=C1N(Cc2cc3cc(Cl)ccc3n2[C@H]2CCS(=O)(=O)C2)c2cnccc2C12CC2	42500	4720	8.05	–
CS(=O)(=O)CCn1c(CN2C(=O)C3(CC3)c3ccncc32)cc2c(F)cccc21	> 100000	> 526	6.72	–
CS(=O)(=O)CCc1c(Cn2c(=O)n(C3CC3)c3ccncc32)nc2cc(Cl)ccn12	–	–	–	Vd [13]: 1.29 L/kg; bioavailability [14]: 16.9%; AUC [15]: 315 µg/L/h; clearance [16]: 93.3 mL/min/kg; half-life [17]: 1.73 h
CS(=O)(=O)CCn1c(CN2C(=O)C3(CC3)c3ccncc32)cc2cccc(Cl)c21	86900	543	6.80	–
CS(=O)(=O)CCCCn1c(CN2C(=O)C3(CC3)c3ccncc32)cc2cc(Cl)ccc21	> 100000	> 16700	8.22	–
